{"source": "patent US20060182683A1", "about": "“Methods for reduced renal uptake of protein conjugates” (Center for Molecular Medicine and Immunology, priority 1995, published 2006)", "key": {"mice [1]": {"tested_on": "mice", "assay": "Biodistribution of 99mTc-Fab′ NP-4 under poly-L-lysine of different molecular weight and lysine/poly-lysine mixtures", "details": "for Blood level of 99mTc-Fab′ NP-4 / Kidney uptake of 99mTc-Fab′ NP-4 / Kidney uptake, % control / Liver uptake of 99mTc-Fab′ NP-4 / Lungs uptake of 99mTc-Fab′ NP-4 / Spleen uptake of 99mTc-Fab′ NP-4: 4 h p.i.", "method": "Female BALB/c mice, 19 to 22 g of weight, 4 to 5 weeks of age (Charles River Laboratories, Boston, Mass.) were used as non-tumor-bearing animals. For a human tumor xenograft model, the human colon carcinoma cell line GW39 (Primus et al supra) was grown subcutaneously in 5- to 6-week-old female athymic mice (Harlan, Madison, Wis.). Animals were injected intravenously into the tail vein with approximately 5-10 μg of antibody fragment protein (i.e., 25-40 μCi of ^99mTc, ^188Re, and ^111In, resp.; 4 μCi of ^88Y, and 10 μCi of ^125I, respectively).\nThe mice were sacrificed after 4 h and 24 h for ^99mTc-labeled antibodies, and after 4, 24, 72, 96 and 168 h for ^125I, ^111In, ^88Y and ^188Re-labeled antibodies. Mice were sacrificed by anesthesia with sodium pentobarbital and bled by cardiac puncture. After cervical dislocation, the animals were dissected. Radioactivity in the tumors and tissues (liver, spleen, kidney, lung, intestine, blood and bone) was determined by gamma scintillation counting using an injection standard to correct for physical decay.\nL-lysine, D-lysine and L-arginine monohydrochloride salts (Sigma, St. Louis, Mo.) were dissolved in phosphate-buffered saline (PBS) at a concentration of 160 mg/ml. L-lysine ethyl ester dihydrochloride was dissolved in PBS to yield a concentration of 80 mg/ml. Poly-L-lysine (1-4 kDa and 15-30 kDa) were used as hydrochloride salts at concentration of 25 mg/ml and 10 mg/ml, respectively.\nAnimals were injected with the lysine and/or poly-lysine solutions intraperitoneally in amounts and at frequencies as shown below. Human patients were infused intravenously over a three-hour period with 1.5 liters of a commercially available amino acid solution starting 15 min before the antibody injection. The data of a total of 77 patients examined with ^99mTc-labeled anti-CEA Fab′ (NP-4: n=19; F023C5: n=58) were taken as controls (infused with the same volume of 0.9% saline instead of the amino acid solution).\nTo attempt to reduce the necessity of frequent injections of the kidney uptake reducing agent, polymeric substances of higher molecular weight were investigated.\nTo reach maximal effectiveness with as few injections as possible, combinations of lysine and poly-lysine were tested."}, "mice [2]": {"tested_on": "mice", "assay": "Kidney uptake of 111In- and 88Y-labeled F(ab)2 fragments of MN-14", "type": "in vivo", "details": "up to 24 h p.i.; no lysine", "from_the_text": "(§1) After cervical dislocation, the animals were dissected."}, "[3]": {"tested_on": "GW39 colonic cancer xenograft bearing nude mice", "assay": "Biodistribution of anti-CEA 99mTc-Fab′ NP-4 under L-lysine / poly-L-lysine treatment", "type": "in vivo", "details": "poly-L-lys 0.15 mg/g i.v. at −30′", "from_the_text": "as §1"}, "[4]": {"details": "15-30 kD, 10 μg/g once 30′ before antibody"}, "[5]": {"details": "15-30 kD, 20 μg/g once 30′ before antibody"}, "[6]": {"details": "1-4 kD, 100 μg/g once 30′ before antibody"}, "[7]": {"details": "1-4 kD, 200 μg/g once 30′ before antibody"}, "[8]": {"details": "1-4 kD, 300 μg/g once 30′ before antibody"}}, "data": [{"substance": "Poly-L-lysine [poly-L-lysine (15-30 kD)]", "values": [{"measurement": "kidney uptake reduction", "setting": "mice [1]; 1×20 μg/g", "value": 50, "unit": "%"}, {"measurement": "Blood level of 99mTc-Fab′ NP-4", "setting": "mice [1]; [4]", "value": "4.7 ± 0.3"}, {"measurement": "Kidney uptake of 99mTc-Fab′ NP-4", "setting": "mice [1]; [4]", "value": "73.9 ± 7.2"}, {"measurement": "Kidney uptake, % control", "setting": "mice [1]; [4]", "value": 57.8, "unit": "% control"}, {"measurement": "Liver uptake of 99mTc-Fab′ NP-4", "setting": "mice [1]; [4]", "value": "7.3 ± 3.7"}, {"measurement": "Lungs uptake of 99mTc-Fab′ NP-4", "setting": "mice [1]; [4]", "value": "6.8 ± 4.3"}, {"measurement": "Spleen uptake of 99mTc-Fab′ NP-4", "setting": "mice [1]; [4]", "value": "3.7 ± 0.4"}, {"measurement": "Blood level of 99mTc-Fab′ NP-4", "setting": "mice [1]; [5]", "value": "4.7 ± 0.2"}, {"measurement": "Kidney uptake of 99mTc-Fab′ NP-4", "setting": "mice [1]; [5]", "value": "55.7 ± 6.5"}, {"measurement": "Kidney uptake, % control", "setting": "mice [1]; [5]", "value": 43.6, "unit": "% control"}, {"measurement": "Liver uptake of 99mTc-Fab′ NP-4", "setting": "mice [1]; [5]", "value": "4.6 ± 0.7"}, {"measurement": "Lungs uptake of 99mTc-Fab′ NP-4", "setting": "mice [1]; [5]", "value": "7.9 ± 3.2"}, {"measurement": "Spleen uptake of 99mTc-Fab′ NP-4", "setting": "mice [1]; [5]", "value": "3.8 ± 0.3"}]}, {"substance": "Y labeled F(ab)2: 88Y-Bz-DTPA-labeled F(ab)2 fragment of the anti-CEA antibody MN-14", "values": [{"measurement": "highest value of kidney uptake", "setting": "mice [2]", "value": "about 43 % of the injected dose/g"}]}, {"substance": "Poly-L-lysine [poly-L-lysine (1-4 kD)]", "values": [{"measurement": "Blood level of 99mTc-Fab′ NP-4", "setting": "[3]; 4 h p.i.", "value": "1.7 ± 0.2"}, {"measurement": "GW39 uptake of 99mTc-Fab′ NP-4", "setting": "[3]; 4 h p.i.", "value": "3.0 ± 1.0"}, {"measurement": "Kidney uptake of 99mTc-Fab′ NP-4", "setting": "[3]; 4 h p.i.", "value": "30.8 ± 6.0"}, {"measurement": "Kidney uptake, % of contr.", "setting": "[3]; 4 h p.i.", "value": "52.2 % of contr."}, {"measurement": "Liver uptake of 99mTc-Fab′ NP-4", "setting": "[3]; 4 h p.i.", "value": "1.5 ± 0.2"}, {"measurement": "Lung uptake of 99mTc-Fab′ NP-4", "setting": "[3]; 4 h p.i.", "value": "3.1 ± 1.2"}, {"measurement": "Spleen uptake of 99mTc-Fab′ NP-4", "setting": "[3]; 4 h p.i.", "value": "1.0 ± 0.1"}, {"measurement": "Blood level of 99mTc-Fab′ NP-4", "setting": "[3]; 24 h p.i.", "value": "0.3 ± 0.0"}, {"measurement": "GW39 uptake of 99mTc-Fab′ NP-4", "setting": "[3]; 24 h p.i.", "value": "2.2 ± 0.3"}, {"measurement": "Kidney uptake of 99mTc-Fab′ NP-4", "setting": "[3]; 24 h p.i.", "value": "25.3 ± 5.7"}, {"measurement": "Kidney uptake, % of contr.", "setting": "[3]; 24 h p.i.", "value": "94.7 % of contr."}, {"measurement": "Liver uptake of 99mTc-Fab′ NP-4", "setting": "[3]; 24 h p.i.", "value": "0.9 ± 0.1"}, {"measurement": "Lung uptake of 99mTc-Fab′ NP-4", "setting": "[3]; 24 h p.i.", "value": "0.8 ± 0.6"}, {"measurement": "Spleen uptake of 99mTc-Fab′ NP-4", "setting": "[3]; 24 h p.i.", "value": "0.7 ± 0.1"}, {"measurement": "Blood level of 99mTc-Fab′ NP-4", "setting": "mice [1]; [6]", "value": "3.8 ± 0.1"}, {"measurement": "Kidney uptake of 99mTc-Fab′ NP-4", "setting": "mice [1]; [6]", "value": "95.5 ± 4.3"}, {"measurement": "Kidney uptake, % control", "setting": "mice [1]; [6]", "value": 74.8, "unit": "% control"}, {"measurement": "Liver uptake of 99mTc-Fab′ NP-4", "setting": "mice [1]; [6]", "value": "3.0 ± 0.2"}, {"measurement": "Lungs uptake of 99mTc-Fab′ NP-4", "setting": "mice [1]; [6]", "value": "5.9 ± 3.1"}, {"measurement": "Spleen uptake of 99mTc-Fab′ NP-4", "setting": "mice [1]; [6]", "value": "3.0 ± 0.4"}, {"measurement": "Blood level of 99mTc-Fab′ NP-4", "setting": "mice [1]; [7]", "value": "4.4 ± 0.5"}, {"measurement": "Kidney uptake of 99mTc-Fab′ NP-4", "setting": "mice [1]; [7]", "value": "80.5 ± 6.9"}, {"measurement": "Kidney uptake, % control", "setting": "mice [1]; [7]", "value": 63.0, "unit": "% control"}, {"measurement": "Liver uptake of 99mTc-Fab′ NP-4", "setting": "mice [1]; [7]", "value": "3.0 ± 0.4"}, {"measurement": "Lungs uptake of 99mTc-Fab′ NP-4", "setting": "mice [1]; [7]", "value": "3.9 ± 2.6"}, {"measurement": "Spleen uptake of 99mTc-Fab′ NP-4", "setting": "mice [1]; [7]", "value": "2.7 ± 0.4"}, {"measurement": "Blood level of 99mTc-Fab′ NP-4", "setting": "mice [1]; [8]", "value": "5.3 ± 1.4"}, {"measurement": "Kidney uptake of 99mTc-Fab′ NP-4", "setting": "mice [1]; [8]", "value": "67.9 ± 7.5"}, {"measurement": "Kidney uptake, % control", "setting": "mice [1]; [8]", "value": 53.2, "unit": "% control"}, {"measurement": "Liver uptake of 99mTc-Fab′ NP-4", "setting": "mice [1]; [8]", "value": "3.5 ± 0.8"}, {"measurement": "Lungs uptake of 99mTc-Fab′ NP-4", "setting": "mice [1]; [8]", "value": "5.6 ± 1.0"}, {"measurement": "Spleen uptake of 99mTc-Fab′ NP-4", "setting": "mice [1]; [8]", "value": "3.5 ± 0.4"}, {"measurement": "kidney uptake reduction compared with the monomer", "setting": "mice [1]; single i.p. injection", "value": "significantly lower doses than the monomer"}]}]}
